Measurements taken from ChEMBL document CHEMBL2151036, “Chemocentric informatics approach to drug discovery: identification and experimental validation of selective estrogen receptor modulators as ligands of 5-hydroxytryptamine-6 receptors and as potential cognition enhancers” (J Med Chem, 2012).

Target: 5-hydroxytryptamine receptor 6 (Homo sapiens, UniProt P50406)
Experiment: Displacement of [3H]LSD from human 5HT6 receptor expressed in HEK293 cells after 1.5 hrs by liquid scintillation counting; call rule not given here

Chain of 5-hydroxytryptamine receptor 6 (P50406 whole entry): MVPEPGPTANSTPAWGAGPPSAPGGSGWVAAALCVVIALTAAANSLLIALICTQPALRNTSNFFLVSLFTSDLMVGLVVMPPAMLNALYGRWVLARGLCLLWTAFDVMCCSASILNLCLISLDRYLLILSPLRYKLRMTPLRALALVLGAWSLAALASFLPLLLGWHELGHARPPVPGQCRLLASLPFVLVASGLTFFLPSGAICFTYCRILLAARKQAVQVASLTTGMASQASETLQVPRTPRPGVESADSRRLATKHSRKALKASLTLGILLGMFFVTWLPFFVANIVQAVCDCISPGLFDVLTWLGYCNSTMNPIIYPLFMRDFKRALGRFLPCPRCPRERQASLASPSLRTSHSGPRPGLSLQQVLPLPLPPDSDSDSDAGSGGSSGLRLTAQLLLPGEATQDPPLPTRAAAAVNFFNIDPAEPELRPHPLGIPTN

Row | Structure (SMILES) | Ki [nM] | Ki (hek293)
1 | CN(C)CCCN1c2ccccc2CCc2ccc(Cl)cc21 [CLOMIPRAMINE] | 112 | –
2 | O=C(c1ccc(OCCN2CCCCC2)cc1)c1c(-c2ccc(O)cc2)sc2cc(O)ccc12 [RALOXIFENE] | 750 | –
3 | CN(C)CCOc1ccc(/C(=C(/CCCl)c2ccccc2)c2ccccc2)cc1 [TOREMIFENE] | 4120 | –
4 | O=C1NCN(c2ccccc2)C12CCN(CCCC(c1ccc(F)cc1)c1ccc(F)cc1)CC2 | 1190 | –
5 | CNCCC=C1c2ccccc2CCc2ccccc21 [NORTRIPTYLINE] | 214 | –
6 | CCN(CC)CCOc1ccc(C(=C(Cl)c2ccccc2)c2ccccc2)cc1 [CLOMIPHENE] | 1960 | –
7 | COc1ccccc1N1CCN(CCCCNC(=O)c2ccc3ccccc3c2)CC1 [BP-897] | – | Not Active
8 | CC/C(=C(\c1ccccc1)c1ccc(OCCN(C)C)cc1)c1ccccc1 [TAMOXIFEN] | 1040 | –
9 | OCCN1CCN(CC/C=C2/c3ccccc3Sc3ccc(Cl)cc32)CC1 [ZUCLOPENTHIXOL] | 169 | –
10 | O=c1cc(N2CCOCC2)oc2c(-c3ccccc3)cccc12 [LY-294002] | – | Not Active
11 | CC(NCCC(c1ccccc1)c1ccccc1)c1ccccc1 (stereo unspecified) [FENDILINE] | – | Not Active
